Experimental data: US20240018138A1, “PYRIDO[4,3-b]INDOLE DERIVATIVES AND THEIR USE AS PHARMACEUTICALS” (Ventus Therapeutics U.S., Inc., priority 2020, published 2024)

Molecular target: h-cGAS (Homo sapiens (Human), UniProt Q8N884)
Assay: h-cGAS Kinase-Glo assay
Format: biochemical
Settings: Kinase-Glo Max; 40 nM h-cGAS, 100 uM ATP, 100 uM GTP, 25 nM dsDNA, 2 h incubation

Chain of h-cGAS (Q8N884 whole entry): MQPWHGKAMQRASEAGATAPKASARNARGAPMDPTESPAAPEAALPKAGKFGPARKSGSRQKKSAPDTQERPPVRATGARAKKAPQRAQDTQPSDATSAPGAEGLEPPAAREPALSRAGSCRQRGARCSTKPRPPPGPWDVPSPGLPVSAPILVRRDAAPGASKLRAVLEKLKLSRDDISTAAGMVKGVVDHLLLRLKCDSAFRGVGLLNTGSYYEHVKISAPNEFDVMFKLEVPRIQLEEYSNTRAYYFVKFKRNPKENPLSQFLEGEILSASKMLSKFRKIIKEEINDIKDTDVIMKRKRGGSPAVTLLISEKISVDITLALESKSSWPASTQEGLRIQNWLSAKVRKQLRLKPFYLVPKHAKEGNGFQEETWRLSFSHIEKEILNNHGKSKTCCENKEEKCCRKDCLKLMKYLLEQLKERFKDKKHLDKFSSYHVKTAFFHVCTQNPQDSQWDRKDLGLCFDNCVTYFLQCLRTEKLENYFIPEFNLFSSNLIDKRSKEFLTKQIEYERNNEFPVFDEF

| SMILES | IC50 |
| --- | --- |
| COCC(=O)N1[C@H](C)Cc2[nH]c3c(Cl)c(Cl)ccc3c2[C@@H]1C [Compound 104] | 51.7 nM |
| COCC(=O)N1CCc2[nH]c3c(Cl)c(Cl)cc(-c4ccn(C)n4)c3c2[C@H]1C [Compound 105] | 3820 nM |
| COCC(=O)N1CCc2[nH]c3c(Cl)c(Cl)cc(-c4ccn(C)n4)c3c2[C@@H]1C [Compound 106] | 4550 nM |
| COCC(=O)N1CCc2[nH]c3c(Cl)c(F)ccc3c2[C@H]1C [Compound 107] | 51.8 nM |
| COCC(=O)N1[C@@H](C)Cc2[nH]c3c(Cl)c(Cl)ccc3c2[C@@H]1C [Compound 108] | 62.3 nM |
| COCC(=O)N1[C@H](C)Cc2[nH]c3c(Cl)c(Cl)ccc3c2[C@@H]1C [Compound 109] | 15.1 nM |
| COCC(=O)N1Cc2c([nH]c3c(Cl)c(Cl)ccc23)C2CCCCC21 (centres unmarked) [Compound 110] | 2230 nM |
| COCC(=O)N1Cc2c([nH]c3c(Cl)c(Cl)ccc23)C[C@@H]1C [Compound 111] | 401 nM |
| COCC(=O)N1Cc2c([nH]c3c(Cl)c(Cl)ccc23)C[C@H]1C [Compound 112] | 236 nM |
| COCC(=O)N1Cc2c([nH]c3c(Cl)c(Cl)ccc23)CC1Cc1ccccc1 (centres unmarked) [Compound 113] | 4230 nM |
| COCC(=O)N1Cc2c([nH]c3c(Cl)c(Cl)ccc23)C[C@@H]1C(C)C [Compound 114] | 718 nM |
| COCC(=O)N1Cc2c([nH]c3c(Cl)c(Cl)ccc23)C[C@H]1C(F)(F)F [Compound 115] | 1380 nM |
| COCC(=O)N1Cc2c([nH]c3c(Cl)c(Cl)cc(-c4ccn(C)n4)c23)C[C@H]1C [Compound 116] | 157 nM |
| COCC(=O)N1Cc2c([nH]c3c(Cl)c(Cl)cc(-c4ccn(C)n4)c23)C[C@@H]1C [Compound 117] | 221 nM |
| COCC(=O)N1Cc2c([nH]c3c(F)c(Cl)ccc23)C[C@@H]1C [Compound 118] | 316 nM |
| CC[C@H]1Cc2[nH]c3c(Cl)c(Cl)ccc3c2CN1C(=O)COC [Compound 119] | 470 nM |
| COCC(=O)N1Cc2c([nH]c3c(F)c(Cl)ccc23)C[C@H]1C [Compound 120] | 361 nM |
| COCC(=O)N1Cc2c([nH]c3c(Br)c(Cl)ccc23)C[C@H]1C [Compound 121] | 7630 nM |
| COCC(=O)N1Cc2c([nH]c3c(Cl)c(Br)ccc23)C[C@H]1C [Compound 122] | 205 nM |
| COCC(=O)N1Cc2c([nH]c3c(Br)c(Cl)ccc23)C[C@@H]1C [Compound 123] | 133 nM |
| COCC(=O)N1Cc2c([nH]c3c(Cl)c(F)ccc23)C[C@H]1C [Compound 124] | 1330 nM |
| COCC(=O)N1Cc2c([nH]c3c(Cl)c(C)ccc23)C[C@@H]1C [Compound 125] | 756 nM |
| COCC(=O)N1Cc2c([nH]c3c(F)c(Br)ccc23)C[C@H]1C [Compound 126] | 387 nM |
